Experimental data: the NIST ThermoML archive (doi:10.1016/j.tca.2004.11.034)
Numbers after ± are expanded uncertainties.

Experiments:
[1] = 101.33 kPa, Liquid; for speed of sound: Anton Paar DSA 48; for mass density: Vibrating tube method
[2] = xn = mol fraction of the nth substance listed; conditions: 101.33 kPa, Liquid; for speed of sound: Anton Paar DSA 48; for mass density: Vibrating tube method
[3] = excess molar enthalpy (molar enthalpy of mixing); xn = mol fraction of the nth substance listed; conditions: 298.15 K, 101.33 kPa, Liquid, Flow calorimetry

CCC(C)Cl (stereo not drawn) [2-chlorobutane]
[1]
Conditions	mass density [kg/m3]	speed of sound [m/s]
298.15 K	867.37 ± 0.45	1066.8 ± 1.4
313.15 K	850.16 ± 0.45	–
333.15 K	–	1006.9 ± 1.4

CCC(C)Cl (stereo not drawn) [2-chlorobutane] + CC1CCCO1
[2]
Conditions	mass density, 298.15 K [kg/m3]	mass density, 313.15 K [kg/m3]	speed of sound, 298.15 K [m/s]	speed of sound, 313.15 K [m/s]
x2 = 0.049	866.71 ± 0.45	–	1073.2 ± 1.4	–
x2 = 0.0565	–	849.52 ± 0.44	–	1013.7 ± 1.4
x2 = 0.1006	866.01 ± 0.45	–	1080.1 ± 1.4	–
x2 = 0.101	–	848.97 ± 0.44	–	1019.3 ± 1.4
x2 = 0.201	–	847.69 ± 0.44	–	1031.9 ± 1.4
x2 = 0.2041	864.52 ± 0.45	–	1093.8 ± 1.4	–
x2 = 0.3034	862.99 ± 0.45	–	1107.1 ± 1.4	–
x2 = 0.3045	–	846.28 ± 0.44	–	1045.1 ± 1.4
x2 = 0.4039	–	844.81 ± 0.44	–	1057.9 ± 1.4
x2 = 0.4055	861.31 ± 0.45	–	1120.8 ± 1.4	–
x2 = 0.5026	859.61 ± 0.45	–	1134 ± 1.4	–
x2 = 0.5074	–	843.19 ± 0.44	–	1071.3 ± 1.4
x2 = 0.6005	857.81 ± 0.45	–	1147.3 ± 1.4	–
x2 = 0.6044	–	841.58 ± 0.44	–	1083.9 ± 1.4
x2 = 0.6989	855.91 ± 0.45	–	1160.9 ± 1.4	–
x2 = 0.7042	–	839.79 ± 0.44	–	1097 ± 1.4
x2 = 0.8022	853.81 ± 0.45	–	1175.2 ± 1.4	–
x2 = 0.8034	–	837.9 ± 0.44	–	1110 ± 1.4
x2 = 0.8988	–	835.97 ± 0.44	–	1122.6 ± 1.4
x2 = 0.8991	851.69 ± 0.45	–	1188.7 ± 1.4	–
x2 = 0.9456	–	835.03 ± 0.44	–	1128.8 ± 1.4
x2 = 0.9472	850.55 ± 0.44	–	1195.3 ± 1.4	–

[3]
Conditions	excess molar enthalpy [kcal/mol]
x2 = 0.057	-0.00454 ± 0.000239
x2 = 0.104	-0.01 ± 0.000239
x2 = 0.201	-0.0198 ± 0.000478
x2 = 0.298	-0.0277 ± 0.000478
x2 = 0.398	-0.033 ± 0.000478
x2 = 0.497	-0.0356 ± 0.000478
x2 = 0.597	-0.0359 ± 0.000478
x2 = 0.696	-0.0323 ± 0.000478
x2 = 0.799	-0.0251 ± 0.000478
x2 = 0.901	-0.0141 ± 0.000239
x2 = 0.954	-0.00717 ± 0.000239

CC1CCCO1 (stereo not drawn) [2-methyltetrahydrofuran]
[1]
Conditions	mass density [kg/m3]	speed of sound [m/s]
298.15 K	849.2 ± 0.46	1202.6 ± 1.4
313.15 K	833.88 ± 0.45	–
333.15 K	–	1136.2 ± 1.4

CC1CCCO1 (stereo not drawn) [2-methyltetrahydrofuran] + CCCCCl
[2]
Conditions	mass density, 298.15 K [kg/m3]	mass density, 313.15 K [kg/m3]	speed of sound, 298.15 K [m/s]	speed of sound, 313.15 K [m/s]
x1 = 0.0507	–	862.5 ± 0.45	–	1061 ± 1.4
x1 = 0.0535	879.23 ± 0.46	–	1123.2 ± 1.4	–
x1 = 0.0972	878.04 ± 0.46	–	1126.8 ± 1.4	–
x1 = 0.1022	–	861.16 ± 0.45	–	1065 ± 1.4
x1 = 0.1958	875.19 ± 0.45	–	1134.9 ± 1.4	–
x1 = 0.2014	–	858.46 ± 0.45	–	1072.6 ± 1.4
x1 = 0.2975	872.17 ± 0.45	–	1143.3 ± 1.4	–
x1 = 0.3019	–	855.6 ± 0.45	–	1080.3 ± 1.4
x1 = 0.4006	869.04 ± 0.45	–	1151.9 ± 1.4	–
x1 = 0.4047	–	852.6 ± 0.45	–	1088.5 ± 1.4
x1 = 0.5017	–	849.72 ± 0.44	–	1096.2 ± 1.4
x1 = 0.5031	865.88 ± 0.45	–	1160.5 ± 1.4	–
x1 = 0.6017	862.77 ± 0.45	–	1168.8 ± 1.4	–
x1 = 0.6026	–	846.65 ± 0.44	–	1104.3 ± 1.4
x1 = 0.6986	859.63 ± 0.45	–	1177 ± 1.4	–
x1 = 0.7017	–	843.55 ± 0.44	–	1112.3 ± 1.4
x1 = 0.7994	–	840.43 ± 0.44	–	1120.2 ± 1.4
x1 = 0.8009	856.27 ± 0.45	–	1185.6 ± 1.4	–
x1 = 0.9005	852.87 ± 0.45	–	1194.1 ± 1.4	–
x1 = 0.9009	–	837.13 ± 0.44	–	1128.3 ± 1.4
x1 = 0.9487	–	835.54 ± 0.44	–	1132.2 ± 1.4
x1 = 0.9489	851.15 ± 0.45	–	1198.2 ± 1.4	–

[3]
Conditions	excess molar enthalpy [kcal/mol]
x1 = 0.057	-0.00669 ± 0.000239
x1 = 0.104	-0.0139 ± 0.000478
x1 = 0.201	-0.0277 ± 0.000478
x1 = 0.298	-0.038 ± 0.000717
x1 = 0.398	-0.0466 ± 0.000717
x1 = 0.497	-0.0502 ± 0.000717
x1 = 0.597	-0.0495 ± 0.000717
x1 = 0.696	-0.0449 ± 0.000717
x1 = 0.799	-0.0351 ± 0.000478
x1 = 0.901	-0.0203 ± 0.000478
x1 = 0.954	-0.0103 ± 0.000239
